Experiments:
Assay in all cases: cells
Type in all cases: functional, cell-based
Settings in all cases: Homo sapiens
[1] = system: HEC-1;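 also: growth inhibition of the cell line, read out with a cell viability assay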
Description: SANGER: Inhibition of human HEC-1 cell growth in a cell viability assay.

[2] = system: SK-MEL-30;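 also: growth inhibition of SK-MEL-30 cells, determined with a cell viability assay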
Description: SANGER: Inhibition of human SK-MEL-30 cell growth in a cell viability assay.

[3] = system: HSC-4;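 also: growth inhibition of human HSC-4 cells, read out with a cell viability assay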
Description: SANGER: Inhibition of human HSC-4 cell growth in a cell viability assay.

[4] = system: JEG-3;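 also: growth inhibition of human JEG-3 cells, read out with a cell viability assay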
Description: SANGER: Inhibition of human JEG-3 cell growth in a cell viability assay.

[5] = system: Huh-7;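 also: HuH-7 cell growth inhibition, read out with a cell viability assay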
Description: SANGER: Inhibition of human HuH-7 cell growth in a cell viability assay.

[6] = system: RT-112
Description: SANGER: Inhibition of human RT-112 cell growth in a cell viability assay.

[7] = system: NCI-H1623;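 also: cell viability assay used as the read-out for growth inhibition of NCI-H1623 cells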
Description: SANGER: Inhibition of human NCI-H1623 cell growth in a cell viability assay.

[8] = system: NCI-H1993;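 also: growth inhibition of the cancer cell line, assessed with a cell viability assay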
Description: SANGER: Inhibition of human NCI-H1993 cell growth in a cell viability assay.

[9] = system: NCI-H460;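 also: cell viability assay scoring growth inhibition of human NCI-H460 cells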
Description: SANGER: Inhibition of human NCI-H460 cell growth in a cell viability assay.

[10] = system: CAL-27;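 also: Viability-based readout, IC50 reflecting inhibition of CAL-27 cell growth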
Description: SANGER: Inhibition of human CAL-27 cell growth in a cell viability assay.

[11] = system: SKG-IIIa;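 also: cell growth inhibition, read out with a cell viability assay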
Description: SANGER: Inhibition of human SKG-IIIa cell growth in a cell viability assay.

[12] = system: NB12;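 also: growth inhibition of human NB12 cells, read out by a cell viability assay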
Description: SANGER: Inhibition of human NB12 cell growth in a cell viability assay.

[13] = system: SW756;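 also: growth inhibition of human SW756 cells, read out with a cell viability assay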
Description: SANGER: Inhibition of human SW756 cell growth in a cell viability assay.

[14] = system: WM-115
Description: SANGER: Inhibition of human WM-115 cell growth in a cell viability assay.

[15] = system: TCC-SUP;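 also: growth inhibition of TCC-SUP cells, read out with a cell viability assay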
Description: SANGER: Inhibition of human TCCSUP cell growth in a cell viability assay.

[16] = system: T-24;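 also: growth inhibition of T-24 cells, read out with a cell viability assay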
Description: SANGER: Inhibition of human T-24 cell growth in a cell viability assay.

[17] = system: HCC 2998;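 also: growth inhibition of human HCC2998 cells, measured with a cell viability read-out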
Description: SANGER: Inhibition of human HCC2998 cell growth in a cell viability assay.

[18] = system: SW1710;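 also: growth inhibition of SW1710 cells, determined with a cell viability assay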
Description: SANGER: Inhibition of human SW1710 cell growth in a cell viability assay.

[19] = system: KYSE-410;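 also: growth inhibition of KYSE-410 cells, measured through a cell viability readout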
Description: SANGER: Inhibition of human KYSE-410 cell growth in a cell viability assay.

[20] = system: KOSC-2;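 also: growth inhibition of KOSC-2 cells, read out by a cell viability assay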
Description: SANGER: Inhibition of human KOSC-2 cell growth in a cell viability assay.

[21] = system: HT55;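 also: cell viability readout measuring growth inhibition of human HT55 cells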
Description: SANGER: Inhibition of human HT55 cell growth in a cell viability assay.

[22] = system: HuO9;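 also: growth inhibition of HuO9 cells, read out with a cell viability assay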
Description: SANGER: Inhibition of human HuO9 cell growth in a cell viability assay.

[23] = system: NCI-H661;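 also: cell viability assay read-out, IC50 being the concentration that inhibits growth of the cells by half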
Description: SANGER: Inhibition of human NCI-H661 cell growth in a cell viability assay.

[24] = system: SNU-423
Description: SANGER: Inhibition of human SNU-423 cell growth in a cell viability assay.

[25] = system: M059J;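 also: growth inhibition of M059J cells, read out with a cell viability assay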
Description: SANGER: Inhibition of human M059J cell growth in a cell viability assay.

[26] = system: AN3-CA;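 also: growth inhibition of human AN3-CA cells measured by a cell viability assay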
Description: SANGER: Inhibition of human AN3-CA cell growth in a cell viability assay.

[27] = system: UACC-893
Description: SANGER: Inhibition of human UACC-893 cell growth in a cell viability assay.

[28] = system: HCC1569;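 also: growth inhibition of human HCC1569 cells, read out with a cell viability assay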
Description: SANGER: Inhibition of human HCC1569 cell growth in a cell viability assay.

[29] = system: CP66-MEL;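 also: growth inhibition of CP66-MEL cells determined in a cell viability assay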
Description: SANGER: Inhibition of human CP66-MEL cell growth in a cell viability assay.

[30] = system: NCI-H650;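 also: growth inhibition of NCI-H650 cells, read out by a viability assay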
Description: SANGER: Inhibition of human NCI-H650 cell growth in a cell viability assay.

[31] = system: BXPC-3;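 also: growth inhibition of human BxPC-3 cells, read out by a cell viability assay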
Description: SANGER: Inhibition of human BxPC-3 cell growth in a cell viability assay.

[32] = system: Panc1005;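 also: growth inhibition of human PANC-10-05 cells, measured by a cell viability assay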
Description: SANGER: Inhibition of human PANC-10-05 cell growth in a cell viability assay.

[33] = system: HT-29;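 also: growth inhibition of human HT-29 cells, read out by a cell viability assay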
Description: SANGER: Inhibition of human HT-29 cell growth in a cell viability assay.

[34] = system: YKG-1;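 also: cell growth inhibition, read out with a viability assay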
Description: SANGER: Inhibition of human YKG-1 cell growth in a cell viability assay.

[35] = system: ME-180;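 also: cell viability assay measuring growth inhibition of ME-180 cells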
Description: SANGER: Inhibition of human ME-180 cell growth in a cell viability assay.

[36] = system: C3A;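 also: growth inhibition of C3A human cells, quantified with a cell viability readout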
Description: SANGER: Inhibition of human C3A cell growth in a cell viability assay.

[37] = system: Hs-578T
Description: SANGER: Inhibition of human Hs-578-T cell growth in a cell viability assay.

[38] = system: NY
Description: SANGER: Inhibition of human NY cell growth in a cell viability assay.

[39] = system: COLO-680N;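 also: cell viability assay used to measure inhibition of COLO-680N cell growth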
Description: SANGER: Inhibition of human COLO-680N cell growth in a cell viability assay.

[40] = system: BHT-101
Description: SANGER: Inhibition of human BHT-101 cell growth in a cell viability assay.

[41] = system: MDA-MB-231
Description: SANGER: Inhibition of human MDA-MB-231 cell growth in a cell viability assay.

[42] = system: MDA-MB-415
[43] = system: UACC-62;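 also: growth inhibition of human UACC-62 cells, read out by a cell viability assay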
Description: SANGER: Inhibition of human UACC-62 cell growth in a cell viability assay.

[44] = system: UO-31;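 also: cell viability assay measuring inhibition of cell growth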
Description: SANGER: Inhibition of human U031 cell growth in a cell viability assay.

NC(=O)Nc1cc(-c2cccc(F)c2)sc1C(=O)N[C@H]1CCCNC1 [AZD-7762]
IC50 [1]: 814 nM | IC50 [2]: > 2000 nM | IC50 [3]: 106 nM | IC50 [4]: > 2000 nM | IC50 [5]: 1400 nM | IC50 [6]: 499 nM | IC50 [7]: > 2000 nM | IC50 [8]: > 2000 nM | IC50 [9]: 1530 nM | IC50 [10]: > 2000 nM | IC50 [11]: 650 nM | IC50 [12]: > 2000 nM | IC50 [13]: 35.8 nM | IC50 [14]: > 2000 nM | IC50 [15]: > 2000 nM | IC50 [16]: 370 nM | IC50 [17]: 317 nM | IC50 [18]: 640 nM | IC50 [19]: 1040 nM | IC50 [20]: 247 nM | IC50 [21]: 1610 nM | IC50 [22]: 298 nM | IC50 [23]: 637 nM | IC50 [24]: 535 nM | IC50 [25]: 1070 nM | IC50 [26]: 837 nM | IC50 [27]: > 2000 nM | IC50 [28]: > 2000 nM | IC50 [29]: > 2000 nM | IC50 [30]: 1420 nM | IC50 [31]: 1310 nM | IC50 [32]: > 2000 nM | IC50 [33]: 894 nM | IC50 [34]: 1580 nM | IC50 [35]: 1720 nM | IC50 [36]: > 2000 nM | IC50 [37]: 453 nM | IC50 [38]: > 2000 nM | IC50 [39]: > 2000 nM | IC50 [40]: 1150 nM | IC50 [41]: 1600 nM | IC50 [42]: > 2000 nM | IC50 [43]: 776 nM | IC50 [44]: 482 nM

CN(NC(=O)CC(=O)NN(C)C(=S)c1ccccc1)C(=S)c1ccccc1 [ELESCLOMOL]
IC50 [1]: 8.25 nM | IC50 [2]: > 200 nM | IC50 [3]: 4.8 nM | IC50 [4]: 8.84 nM | IC50 [5]: 17.6 nM | IC50 [6]: 14.2 nM | IC50 [7]: 179 nM | IC50 [8]: > 200 nM | IC50 [9]: > 200 nM | IC50 [10]: 33.4 nM | IC50 [11]: 49.8 nM | IC50 [12]: 48 nM | IC50 [13]: 4.13 nM | IC50 [14]: 34 nM | IC50 [15]: 13.5 nM | IC50 [16]: 1.55 nM | IC50 [17]: 111 nM | IC50 [18]: 5.16 nM | IC50 [19]: 19.7 nM | IC50 [20]: 5.45 nM | IC50 [21]: > 200 nM | IC50 [22]: 21.5 nM | IC50 [23]: 12.5 nM | IC50 [24]: 15.2 nM | IC50 [25]: 20.6 nM | IC50 [26]: 10.8 nM | IC50 [27]: > 200 nM | IC50 [28]: > 200 nM | IC50 [29]: 55.1 nM | IC50 [30]: 36.6 nM | IC50 [31]: > 200 nM | IC50 [32]: 110 nM | IC50 [33]: > 200 nM | IC50 [34]: 12.6 nM | IC50 [35]: 16.2 nM | IC50 [36]: > 200 nM | IC50 [37]: 15.5 nM | IC50 [38]: 37.6 nM | IC50 [39]: 187 nM | IC50 [40]: 3.72 nM | IC50 [41]: 19 nM | IC50 [42]: 137 nM | IC50 [43]: 23.2 nM | IC50 [44]: 13.4 nM

Source: ChEMBL document CHEMBL1201861, “Genomics of Drug Sensitity in Cancer screening data, Wellcome Trust Sanger Institute”
